Common to all, as to type: cell-based
One assay addresses T1, K-Ras G12D (Homo sapiens, UniProt P01116, G12D).
T1 construct: expressed in transfected cells; host or cells: 293H cells
Briefly: G-LISA Ras activation, 293H cells transfected with G12D mutant. To be noted: compound 1 hour. In short, it runs like this:
(§1)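 Active Ras was quantified by G-LISA in lysates of 293H cells made the day after transfection with wild-type, G12D or G12V Ras plasmid (5 μg). Compounds were applied at 3.125-25 μM for 1 h; only the wild-type cells got a 2-min 100 ng/ml EGF pulse before lysis.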

A further assay concerns Panc10.05-G12D. Briefly: Viability assay (CellTiterBlue, 72 hr) Panc10.05. The conditions noted are these: Homo sapiens, Panc1005, GI50, CellTiterBlue, Panc10.05 K-Ras G12D, read-out: 72 hr Cell Viability Panc10.05 (G12D). In short, it runs like this: (§2)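 Cells were seeded at 1000 per well and allowed 18 hr at 37 °C in CO2 before compound addition (final DMSO 0.5%). After 72 hr exposure, CellTiterBlue was added for 3 hr and fluorescence read at Ex550/Em590. GI50 values were calculated against DMSO (100%) and 100 uM tamoxifen (0%) controls.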

Assay [1] has as its system phospho-Akt in Panc10.05 (G12D). Briefly: In-Cell Western phospho-Akt, Panc10.05. To be noted: Homo sapiens, Panc1005, 1 h; Panc10.05, one hour treatment; read-out: In-Cell Western Panc10.05 (G12D) Akt (P). In short, it runs like this: (§3)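 Following an 18 hr settle at 37° C, seeded cells receive test compound for 1 hr before fixation and staining with phospho-Akt and phospho-ERK primary antibodies (overnight, 4° C) plus a goat anti-rabbit secondary. Plates are imaged and fluorescence quantitated to give EC50.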

Assay [2] relates to U87-MG (K-Ras wild type cell line). The assay is described as follows: Viability assay (CellTiterBlue, 72 hr) U87-MG. The conditions noted are these: Homo sapiens, U-87 MG, GI50, CellTiterBlue, U87-MG K-Ras wild-type. An outline of the steps: as §2
Another assay deals with T2, wild type K-Ras (Homo sapiens, UniProt P01116).
T2 construct: expressed in transfected cells; host or cells: 293H cells
T2 sequence (P01116 whole entry): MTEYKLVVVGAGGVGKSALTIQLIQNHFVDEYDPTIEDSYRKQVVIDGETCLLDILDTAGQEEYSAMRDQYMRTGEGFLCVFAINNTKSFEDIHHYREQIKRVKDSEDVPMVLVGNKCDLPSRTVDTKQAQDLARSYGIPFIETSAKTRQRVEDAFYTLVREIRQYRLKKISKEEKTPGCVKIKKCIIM
The assay is described as follows: G-LISA Ras activation, 293H cells transfected with Ras wild-type, EGF stimulated. To be noted: compound 1 hour, then 100 ng/ml EGF 2 minutes. An outline of the steps: as §1

The target in the next assay is T3, K-Ras G12V (Homo sapiens, UniProt P01116, G12V).
T3 construct: expressed in transfected cells; host or cells: 293H cells
T3 sequence (P01116 whole entry G12V): as the sequence (P01116 whole entry) above, with G12V counted along it
Briefly: G-LISA Ras activation, 293H cells transfected with G12V mutant. To be noted: compound 1 hour. On the procedure:
293H cells were seeded in 6-wells at 0.6×10^6 cells per well and transfected next day with 5 μg of Ras wild-type, or G12C, G12D or G12V mutant DNA plasmid vector using transfection reagent Lipofectamine 3000. Next day cells were treated with 3.125-25 μM of Ras compounds for 1 hour. Wild-type transfected cells were subsequently treated with 100 ng/ml EGF for 2 minutes. Cells were washed once in ice-cold PBS, lysed in complete lysis buffer on ice, and processed by G-LISA according to Cytoskeleton protocol.

Assay [3] deals with phospho-Akt in Panc1 (G12D). The assay is described as follows: In-Cell Western phospho-Akt, Panc1. The conditions noted are these: Homo sapiens, PANC-1, 1 h; Panc1, one hour treatment; read-out: In-Cell Western Panc1 (G12D) Akt (P). An outline of the steps:
as §3

Assay [4] concerns Ishikawa (K-Ras wild type cell line). The assay is described as follows: Viability assay (CellTiterBlue, 72 hr) Ishikawa. To be noted: Homo sapiens, GI50, CellTiterBlue, Ishikawa K-Ras wild-type. An outline of the steps:
as §2
(In general: Resazurin is reduced to fluorescent resorufin, in cell work by metabolically active cells.)

Another assay concerns HCT116-G31D. Briefly: Viability assay (CellTiterBlue, 72 hr) HCT116. To be noted: Homo sapiens, HCT-116, GI50, CellTiterBlue, HCT116 K-Ras G13D, read-out: 72 hr Cell Viability HCT116 (G13D). In short, it runs like this: as §2
For a further assay, the system named is Panc1-G12D. Briefly: Viability assay (CellTiterBlue, 72 hr) Panc1. The conditions noted are these: Homo sapiens, PANC-1, GI50, CellTiterBlue, Panc1 K-Ras G12D, read-out: 72 hr Cell Viability Panc1 (G12D). An outline of the steps:
as §2

The subject of assay [5] is phospho-ERK in Panc1 (G12D). The assay is described as follows: In-Cell Western phospho-ERK, Panc1. The conditions noted are these: Homo sapiens, PANC-1, 1 h; Panc1, one hour treatment; read-out: In-Cell Western Panc1 (G12D) Erk (P). In short, it runs like this:
as §3

Assay [6] has as its system phospho-Akt in HCC827 (Wild-type). The assay is described as follows: In-Cell Western phospho-Akt, HCC827. The conditions noted are these: Homo sapiens, 1 h; HCC827, one hour treatment; read-out: In-Cell Western HCC827 (Wild-type) Akt (P). In short, it runs like this: as §3
Assay [7] has as its system HCC827 (K-Ras wild type cell line). The assay is described as follows: Viability assay (CellTiterBlue, 72 hr) HCC827. To be noted: Homo sapiens, GI50, CellTiterBlue, HCC827 K-Ras wild-type. In short, it runs like this:
as §2

Assay [8] concerns phospho-ERK in Panc10.05 (G12D). The assay is described as follows: In-Cell Western phospho-ERK, Panc10.05. To be noted: Homo sapiens, Panc1005, 1 h; Panc10.05, one hour treatment; read-out: In-Cell Western Panc10.05 (G12D) Erk (P). An outline of the steps: as §3
The subject of assay [9] is phospho-ERK in HCC827 (Wild-type). The assay is described as follows: In-Cell Western phospho-ERK, HCC827. The conditions noted are these: Homo sapiens, 1 h; HCC827, one hour treatment; read-out: In-Cell Western HCC827 (Wild-type) Erk (P). In short, it runs like this: as §3
Assay [10] has as its system phospho-Akt in A375 (Wild-type). The assay is described as follows: In-Cell Western phospho-Akt, A375. The conditions noted are these: Homo sapiens, A-375, 1 h; A375, one hour treatment; read-out: In-Cell Western A375 (Wild-type) Akt (P). An outline of the steps: as §3
In assay [11] the test system is A375 (K-Ras wild type cell line). Briefly: Viability assay (CellTiterBlue, 72 hr) A375. The conditions noted are these: Homo sapiens, A-375, GI50, CellTiterBlue. In short, it runs like this: as §2
For assay [12], the system named is phospho-ERK in A375 (Wild-type). Briefly: In-Cell Western phospho-ERK, A375. To be noted: Homo sapiens, A-375, 1 h; A375, one hour treatment; read-out: In-Cell Western A375 (Wild-type) Erk (P). An outline of the steps:
as §3

T1 sequence (P01116 whole entry G12D): as the sequence (P01116 whole entry) above, with G12D counted along it

In the case of `Cc1nc(C2CC2)oc1C(=O)Nc1nc(-c2ccc3c(c2)CCC(=O)N3Cc2ccccc2)cs1` [Compound 58, N-(4-(1-benzyl-2-oxo-1,2,3,4-tetrahydroquinolin-6-yl)thiazol-2-yl)-2-cyclopropyl-4-methyloxazole-5-carboxamide], the IC50 against K-Ras G12D is 5.2 µM; in the assay on Panc10.05-G12D, 3.4 µM; in assay [2], 4 µM; at wild type K-Ras it was 20.4 µM; against K-Ras G12V, 21.6 µM; in assay [4], 2.3 µM. For the same compound, the IC50 is 4 µM in the assay with HCT116-G31D and 1.7 µM in the assay on Panc1-G12D. Also, the values for the EC50 in assay [1] and in [3] were 3 µM and 6 µM, respectively.

Take `CCc1nc(C)c(C(=O)Nc2nc(-c3ccc4c(c3)CCC(=O)N4Cc3ccccn3)cs2)o1` [Compound 63, 2-ethyl-4-methyl-N-(4-(2-oxo-1-(pyridin-2-ylmethyl)-1,2,3,4-tetrahydroquinolin-6-yl)thiazol-2-yl)oxazole-5-carboxamide]: the EC50 in [5] was 3 µM; in [1], above 25 µM; in [3] it was 4 µM; in assay [6], 10 µM; in assay [8], 7 µM; in assay [9] it was 6 µM. Besides, the IC50 is 5.6 µM on K-Ras G12D; 2 µM in the assay with Panc10.05-G12D; 1.5 µM in [2]; above 25 µM against wild type K-Ras; 9.8 µM on K-Ras G12V; 4 µM in assay [4]. Also, the IC50 was 4 µM in the assay with HCT116-G31D, 5 µM in assay [7] and 5 µM in the assay with Panc1-G12D.

As to `Cc1nc(C(C)C)oc1C(=O)Nc1nc(-c2ccc3c(c2)CCC(=O)N3)cs1` [Compound 7, 2-isopropyl-4-methyl-N-(4-(2-oxo-1,2,3,4-tetrahydroquinolin-6-yl)thiazol-2-yl)oxazole-5-carboxamide], the EC50 in [5] was above 25 µM; in [1], 8 µM; in [10], above 25 µM; in assay [3], above 25 µM; in assay [8] it was 4 µM; in [9], above 25 µM. Besides, the EC50 in assay [12] is above 25 µM. The IC50 is 4.8 µM against K-Ras G12D; 2 µM in the assay on Panc10.05-G12D; above 25 µM in [2]; 11.7 µM on wild type K-Ras; above 25 µM against K-Ras G12V; above 25 µM in [11]. In addition, the IC50 was above 25 µM in assay [4], above 25 µM with HCT116-G31D, above 25 µM in [7] and 8 µM with Panc1-G12D.

Regarding `Cc1nc(C)c(C(=O)Nc2nc(-c3ccc4c(c3)CCC(=O)N4CC3CCCOC3)cs2)o1` (stereo not shown) [Compound 66, 2,4-dimethyl-N-(4-(2-oxo-1-((tetrahydro-2H-pyran-3-yl)methyl)-1,2,3,4-tetrahydroquinolin-6-yl)thiazol-2-yl)oxazole-5-carboxamide], the EC50 in [5] was 3 µM; in assay [1], 18 µM; in assay [3], 2 µM; in [6] it was 15 µM; in [8], 3 µM; in assay [9], 4 µM. Further, the IC50 against K-Ras G12D was 4.5 µM; with Panc10.05-G12D it was 2 µM; against wild type K-Ras it was 11.1 µM; against K-Ras G12V, 6.5 µM; in assay [4], 2 µM; with HCT116-G31D, 3 µM. For the same compound, the figures for the IC50 (in assay [7]; in the assay with Panc1-G12D) were 4 µM and 6 µM, respectively.

As for `Cc1nc(C2CCC2)oc1C(=O)Nc1nc(-c2ccc3c(c2)CCC(=O)N3)cs1` [Compound 8, 2-cyclobutyl-4-methyl-N-(4-(2-oxo-1,2,3,4-tetrahydroquinolin-6-yl)thiazol-2-yl)oxazole-5-carboxamide], the EC50 in assay [5] was above 25 µM; in assay [1] it was 6 µM; in assay [10], above 25 µM; in [3], above 25 µM; in assay [8] it was 2 µM; in assay [9] it was above 25 µM. In addition, the EC50 in assay [12] was above 25 µM. For the same compound, the IC50 on K-Ras G12D was 5.9 µM; in the assay with Panc10.05-G12D, 1.3 µM; against wild type K-Ras, 15.5 µM; against K-Ras G12V, above 25 µM; in assay [4] it was above 25 µM; in the assay on HCT116-G31D, above 25 µM. Also, the results for the IC50 (in assay [7]; in the assay on Panc1-G12D) were above 25 µM and 17 µM, respectively.

On to `CCc1nc(C)c(C(=O)Nc2nc(-c3ccc4c(c3)CCC(=O)N4Cc3cccnc3)cs2)o1` [Compound 64, 2-ethyl-4-methyl-N-(4-(2-oxo-1-(pyridin-3-ylmethyl)-1,2,3,4-tetrahydroquinolin-6-yl)thiazol-2-yl)oxazole-5-carboxamide], for which the EC50 was 5 µM in [5]; above 25 µM in assay [1]; 6 µM in assay [3]; 15 µM in assay [6]; 9 µM in assay [8]; 7 µM in assay [9]. For the same compound, the IC50 is 3 µM at K-Ras G12D; 2 µM in the assay with Panc10.05-G12D; 2 µM in assay [2]; above 25 µM against wild type K-Ras; 9.6 µM against K-Ras G12V; 3.5 µM in [4]. Also, the values for the IC50 (in the assay with HCT116-G31D; in assay [7]; in the assay on Panc1-G12D) were 5 µM, 10 µM and 5 µM, respectively.

Turning to `Cc1nc(C2CC2)oc1C(=O)Nc1nc(-c2ccc3c(c2)CCC(=O)N3)cs1` [Compound 6, 2-cyclopropyl-4-methyl-N-(4-(2-oxo-1,2,3,4-tetrahydroquinolin-6-yl)thiazol-2-yl)oxazole-5-carboxamide], the EC50 in [5] amounted to 4 µM; in assay [1] it was 3 µM; in assay [8], 2 µM. The IC50 against K-Ras G12D turned out to be 7.3 µM; in the assay with Panc10.05-G12D it was 3.6 µM; in assay [2], 5 µM; against wild type K-Ras, 10.6 µM; against K-Ras G12V, 19.4 µM; in [4], 10 µM. Besides, the IC50 was above 25 µM in the assay on HCT116-G31D and 2.4 µM with Panc1-G12D.

These data come from US10344026B2, “Compositions and methods of targeting mutant K-ras” (NANTBIO, INC., priority 2017, dated 2019).
